Data reported in patent US9359297B2, “Spirolactam derivatives and uses of same” (H. Lundbeck A/S, priority 2009, dated 2016).

What was measured:
[1] = biological target: T1, rat metabotropic glutamate receptor 5 (rmGluR5) (Rattus norvegicus, UniProt P31424); assay: Calcium mobilization (FLIPR) assay for negative allosteric modulation, EC80 glutamate, rmGluR5 in HEK 293; format: cell-based; conditions: HEK293; rmGluR5, inhibition of EC80 glutamate response; read-out: FLIPR maximum inhibition
T1 construct: expressed in transfected cells
T1 sequence (P31424 21-1203): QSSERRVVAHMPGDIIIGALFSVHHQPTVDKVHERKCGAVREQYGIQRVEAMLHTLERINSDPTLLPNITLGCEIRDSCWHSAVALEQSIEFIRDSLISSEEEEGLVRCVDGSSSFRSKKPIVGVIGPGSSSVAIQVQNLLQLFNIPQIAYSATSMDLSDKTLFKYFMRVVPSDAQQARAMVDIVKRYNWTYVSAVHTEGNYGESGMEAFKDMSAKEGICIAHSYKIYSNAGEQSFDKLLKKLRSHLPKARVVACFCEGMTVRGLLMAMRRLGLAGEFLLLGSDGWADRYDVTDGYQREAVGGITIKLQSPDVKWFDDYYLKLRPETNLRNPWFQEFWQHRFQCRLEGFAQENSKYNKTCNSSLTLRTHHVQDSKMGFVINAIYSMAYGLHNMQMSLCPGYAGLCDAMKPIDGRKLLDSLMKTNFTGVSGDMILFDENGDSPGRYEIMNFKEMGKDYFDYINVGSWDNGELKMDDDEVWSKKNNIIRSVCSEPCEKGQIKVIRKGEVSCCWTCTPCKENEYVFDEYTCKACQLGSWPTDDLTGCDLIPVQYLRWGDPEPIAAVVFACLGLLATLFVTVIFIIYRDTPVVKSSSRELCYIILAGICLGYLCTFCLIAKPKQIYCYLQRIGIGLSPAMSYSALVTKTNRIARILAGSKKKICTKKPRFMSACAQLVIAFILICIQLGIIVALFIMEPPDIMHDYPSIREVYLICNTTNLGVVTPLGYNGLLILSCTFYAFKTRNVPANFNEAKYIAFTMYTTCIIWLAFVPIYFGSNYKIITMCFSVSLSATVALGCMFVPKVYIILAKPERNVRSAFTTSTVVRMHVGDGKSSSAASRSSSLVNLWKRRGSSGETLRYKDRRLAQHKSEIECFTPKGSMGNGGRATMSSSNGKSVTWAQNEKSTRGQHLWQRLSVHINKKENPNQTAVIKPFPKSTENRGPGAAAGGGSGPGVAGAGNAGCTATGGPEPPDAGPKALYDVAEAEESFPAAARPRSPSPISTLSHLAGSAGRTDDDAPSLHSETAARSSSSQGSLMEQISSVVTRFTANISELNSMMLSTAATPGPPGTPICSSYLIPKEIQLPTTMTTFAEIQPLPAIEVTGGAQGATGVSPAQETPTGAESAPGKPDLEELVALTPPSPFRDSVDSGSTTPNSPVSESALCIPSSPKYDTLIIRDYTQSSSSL
Experimental: The cDNA for rat metabotropic glutamate receptor 5 (rmGluR5) and the cDNA for human metabotropic glutamate receptor 5 (hmGluR5) were generous gifts from S. Nakanishi (Kyoto University, Kyoto, Japan). The rmGluR5 or hmGluR5 was stably expressed in a HEK 293 cell line and grown in Dulbecco's Modified Eagle Medium (DMEM) (Invitrogen, Carlsbad, Calif.) with supplements (10% bovine calf serum, 4 mM glutamine, 100 units/mL penicillin, 100 μg/mL streptomycin and 0.75 mM G1418) at 37° C., 5% CO2. Twenty-four hours prior to assay, cells were seeded into 384-well black wall microtiter plates coated with poly-D-lysine. Just prior to assay, media was aspirated and cells dye-loaded (25 μL/well) with 3 μM Fluo-4/0.01% pluronic acid in assay buffer (Hank's Balanced Saline Solution (HBSS)): 150 mM NaCl, 5 mM KCl, 1 mM CaCl2, 1 mM MgCl2, plus 20 mM N-2-Hydroxyethylpiperazine-N′-2-ethanesulfonic acid (HEPES), pH 7.4, 0.1% bovine serum albumin (BSA) and 2.5 mM probenicid) for 1 hour in 5% CO2 at 37° C. After excess dye was discarded, cells were washed in assay buffer and layered with a final volume equal to 30 μL/well. Basal fluorescence is monitored in a fluorometric imaging plate reader (FLIPR) (Molecular Devices, Sunnyvale, Calif.) with an excitation wavelength of 488 nm and an emission range of 500 to 560 nm. Laser excitation energy was adjusted so that basal fluorescence readings were approximately 10,000 relative fluorescent units. Cells were stimulated with an EC20 or an EC80 concentration of glutamate in the presence of a compound to be tested, both diluted in assay buffer, and relative fluorescent units were measured at defined intervals (exposure=0.6 sec) over a 3 min period at room temperature. Basal readings derived from negative controls were subtracted from all samples. Maximum change in fluorescence was calculated for each well. Concentration-response curves derived from the maximum change in fluorescence were analyzed by nonlinear regression (Hill equation). A negative modulator can be identified from these concentration-response curves if a compound produces a concentration dependent inhibition of the EC80 glutamate response.

[2] = biological target: T2, human metabotropic glutamate receptor 5 (hmGluR5) (Homo sapiens, UniProt P41594); assay: Calcium mobilization (FLIPR) assay for negative allosteric modulation, EC80 glutamate, hmGluR5 in HEK 293; format: cell-based; conditions: HEK293; hmGluR5, inhibition of EC80 glutamate response; read-out: FLIPR maximum inhibition
T2 construct: expressed in transfected cells
T2 sequence (P41594 21-1212): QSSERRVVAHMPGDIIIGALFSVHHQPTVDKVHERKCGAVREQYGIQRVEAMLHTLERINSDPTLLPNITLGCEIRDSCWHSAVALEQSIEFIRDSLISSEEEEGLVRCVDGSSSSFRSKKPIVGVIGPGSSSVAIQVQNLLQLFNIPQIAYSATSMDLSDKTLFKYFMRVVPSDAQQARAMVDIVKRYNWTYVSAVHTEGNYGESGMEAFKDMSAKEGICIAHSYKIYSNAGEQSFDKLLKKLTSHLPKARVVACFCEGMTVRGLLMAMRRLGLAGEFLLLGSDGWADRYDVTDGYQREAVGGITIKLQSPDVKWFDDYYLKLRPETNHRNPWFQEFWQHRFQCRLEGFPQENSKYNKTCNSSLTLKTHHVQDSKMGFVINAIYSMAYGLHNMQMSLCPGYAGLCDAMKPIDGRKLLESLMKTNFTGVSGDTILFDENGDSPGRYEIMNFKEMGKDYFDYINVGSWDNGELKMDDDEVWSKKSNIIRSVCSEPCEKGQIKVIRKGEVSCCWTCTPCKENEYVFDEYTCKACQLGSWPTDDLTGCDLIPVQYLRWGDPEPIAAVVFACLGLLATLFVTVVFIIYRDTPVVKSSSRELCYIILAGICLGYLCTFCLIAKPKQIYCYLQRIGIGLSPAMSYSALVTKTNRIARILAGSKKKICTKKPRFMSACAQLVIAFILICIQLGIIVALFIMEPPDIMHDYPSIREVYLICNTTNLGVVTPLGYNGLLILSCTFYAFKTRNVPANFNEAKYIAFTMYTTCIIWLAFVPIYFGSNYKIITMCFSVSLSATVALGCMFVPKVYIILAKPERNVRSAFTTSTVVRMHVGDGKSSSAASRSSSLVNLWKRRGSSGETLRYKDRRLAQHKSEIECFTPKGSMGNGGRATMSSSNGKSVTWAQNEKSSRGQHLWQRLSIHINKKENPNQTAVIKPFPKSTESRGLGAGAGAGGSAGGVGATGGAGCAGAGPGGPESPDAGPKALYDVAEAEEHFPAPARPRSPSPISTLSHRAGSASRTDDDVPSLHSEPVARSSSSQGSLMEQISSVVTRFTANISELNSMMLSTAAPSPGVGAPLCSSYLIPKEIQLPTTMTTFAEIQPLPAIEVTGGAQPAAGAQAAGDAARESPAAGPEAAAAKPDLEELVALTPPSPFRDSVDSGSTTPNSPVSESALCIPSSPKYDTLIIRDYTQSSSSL
Procedure, shortened: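 Stably transfected HEK 293 cells, Fluo-4-loaded, stimulated with EC80 glutamate plus test compound in HBSS/20 mM HEPES pH 7.4 with probenecid; FLIPR fluorescence read over 3 min at room temperature. Basal-subtracted maximum fluorescence change fitted by Hill equation; negative modulation seen as concentration-dependent inhibition of the EC80 response.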

In the case of Cc1cccc(N2CC[C@@]3(CCC[C@H](NC(=O)c4cccc(F)c4)C3)C2=O)n1 (relative stereo) [Example 24, trans-3-Fluoro-N-[2-(6-methyl-pyridin-2-yl)-1-oxo-2-aza-spiro[4.5]dec-7-yl]-benzamide], the Emax [1] is reported as 81 to 99%.
For O=C(N[C@H]1CCC[C@]2(CCN(c3ccc(F)cn3)C2=O)C1)c1ccccn1 (relative stereo) [Example 33, cis-Pyridine-2-carboxylic acid [2-(5-fluoro-pyridin-2-yl)-1-oxo-2-aza-spiro [4.5]dec-7-yl]-amide], the Emax [1] was 81 to 99%.
For N#Cc1cccc(N2CC[C@]3(CCC[C@H](NC(=O)c4cccc(F)c4)C3)C2=O)n1 (relative stereo) [Example 53, cis-N-[2-(6-Cyano-pyridin-2-yl)-1-oxo-2-aza-spiro[4.5]dec-7-yl]-3-fluoro-benzamide], the Emax [1] was 81 to 99%.
In the case of O=C(N[C@H]1CCC[C@@]2(CCN(c3cccc(F)c3)C2=O)C1)c1ccccn1 (relative stereo) [Example 20, trans-Pyridine-2-carboxylic acid [2-(3-fluoro-phenyl)-1-oxo-2-aza-spiro [4.5]dec-7-yl]-amide], the Emax [1] is reported as 81 to 99%.
With Cc1cccc(C(=O)N[C@H]2CCC[C@]3(CCN(c4cccc(C#N)c4)C3=O)C2)n1 (relative stereo) [Example 10, cis-6-Methyl-pyridine-2-carboxylic acid [2-(3-cyano-phenyl)-1-oxo-2-aza-spiro [4.5]dec-7-yl]-amide] the Emax [1] was 81 to 99%.
Work on Cc1cccc(C(=O)N[C@H]2CCC[C@@]3(CCN(c4cccc(F)c4)C3=O)C2)n1 (relative stereo) [Example 18, trans-6-Methyl-pyridine-2-carboxylic acid [2-(3-fluoro-phenyl)-1-oxo-2-aza-spiro [4.5]dec-7-yl]-amide] yielded an Emax [1] of 81 to 99%.
Compound Cc1cccc(N2CC[C@]3(CCC[C@H](NC(=O)c4cccc(F)c4)C3)C2=O)n1 (racemic) [Example 27, cis-3-Fluoro-N-[2-(6-methyl-pyridin-2-yl)-1-oxo-2-aza-spiro[4.5]dec-7-yl]-benzamide] has an Emax [1] of 81 to 99%.
For Cc1nccc(C(=O)N[C@H]2CCC[C@]3(CCN(c4ccc(F)cn4)C3=O)C2)n1 (relative stereo) [Example 57, cis-2-Methyl-pyrimidine-4-carboxylic acid [2-(5-fluoro-pyridin-2-yl)-1-oxo-2-aza-spiro [4.5]dec-7-yl]-amide], the Emax [1] was 81 to 99%.
In the case of Cc1ccnc(N2CC[C@]3(CCC[C@H](NC(=O)c4cccc(F)c4)C3)C2=O)n1 (relative stereo) [Example 37, cis-3-Fluoro-N-[2-(4-methyl-pyrimidin-2-yl)-1-oxo-2-aza-spiro[4.5]dec-7-yl]-benzamide], the Emax [1] is reported as 81 to 99%.
O=C(N[C@H]1CCC[C@]2(CCN(c3ccccn3)C2=O)C1)c1cccc(F)c1 (relative stereo) [Example 26, 3-Fluoro-N-(1-oxo-2-pyridin-2-yl-2-aza-spiro[4.5]dec-7-yl)-benzamide] gave an Emax [1] of 81 to 99%.
Cc1cccc(N2CC[C@]3(CCC[C@H](NC(=O)c4ccccn4)C3)C2=O)n1 (relative stereo) [Example 7, cis-Pyridine-2-carboxylic acid [2-(6-methyl-pyridin-2-yl)-1-oxo-2-aza-spiro [4.5]dec-7-yl]-amide] was tested, and the Emax [1] was 81 to 99%.
Cc1cc(N2CC[C@]3(CCC[C@H](NC(=O)c4cccc(C)n4)C3)C2=O)ccn1 (relative stereo) [Example 52, cis-6-Methyl-pyridine-2-carboxylic acid [2-(2-methyl-pyridin-4-yl)-1-oxo-2-aza-spiro[4.5]dec-7-yl]-amide] was tested, and the Emax [1] was 81 to 99%.
Cc1cccc(C(=O)N[C@H]2CCC[C@]3(CCN(c4nccc(C)n4)C3=O)C2)n1 (relative stereo) [Example 34, cis-6-Methyl-pyridine-2-carboxylic acid [2-(4-methyl-pyrimidin-2-yl)-1-oxo-2-aza-spiro[4.5]dec-7-yl]-amide] showed an Emax [1] of 81 to 99%.
Cc1cccc(N2CCC3(CCCC(NC(=O)c4cccc(Cl)c4)C3)C2=O)n1 (stereo not shown) [Example 8, 3-Chloro-N-[2-(6-methyl-pyridin-2-yl)-1-oxo-2-aza-spiro[4.5]dec-7-yl]-benzamide] was tested, and the Emax [1] was 81 to 99%.
Compound O=C(N[C@H]1CCC[C@]2(CCN(c3cccc(Cl)c3)C2=O)C1)c1ccccn1 (single isomer, unassigned) [Example 6] has an Emax [1] of 81 to 99%.
Work on Cc1cccc(C(=O)N[C@H]2CCC[C@]3(CCN(c4cccc(F)c4)C3=O)C2)n1 (relative stereo) [Example 17, cis-6-Methyl-pyridine-2-carboxylic acid [2-(3-fluoro-phenyl)-1-oxo-2-aza-spiro[4.5]dec-7-yl]-amide] yielded an Emax [1] of 81 to 99%.
Cc1cccc(C(=O)N[C@H]2CCC[C@]3(CCN(c4cccc(C(F)(F)F)n4)C3=O)C2)n1 (racemic) [Example 41, cis-6-Methyl-pyridine-2-carboxylic acid [1-oxo-2-(6-trifluoromethyl-pyridin-2-yl)-2-aza-spiro[4.5]dec-7-yl]-amide] was tested, and the Emax [1] was 81 to 99%.
Cc1cncc(C(=O)N[C@H]2CCC[C@]3(CCN(c4cccc(C#N)c4)C3=O)C2)n1 (relative stereo) [Example 11, cis-6-Methyl-pyrazine-2-carboxylic acid [2-(3-cyano-phenyl)-1-oxo-2-aza-spiro [4.5]dec-7-yl]-amide] showed an Emax [1] of 81 to 99%.
N#Cc1cccc(N2CC[C@]3(CCC[C@H](NC(=O)c4cccc(F)c4)C3)C2=O)c1 (relative stereo) [Example 15, cis-N-[2-(3-Cyano-phenyl)-1-oxo-2-aza-spiro[4.5]dec-7-yl]-3-fluoro-benzamide] was tested, and the Emax [1] was 81 to 99%.
In the case of O=C(N[C@H]1CCC[C@@]2(CCN(c3cccc(Cl)c3)C2=O)C1)c1ccccn1 [Example 1, trans-Pyridine-2-carboxylic acid [2-(3-chloro-phenyl)-1-oxo-2-aza-spiro[4.5]dec-7-yl]amide], the Emax [1] is reported as 81 to 99%.
Cc1cccc(C(=O)N[C@@H]2CCC[C@@]3(CCN(c4ccc(F)cc4)C3=O)C2)n1 [Example 80, 6-Methyl-pyridine-2-carboxylic acid [(5R,7R)-2-(4-fluoro-phenyl)-1-oxo-2-aza-spiro[4.5]dec-7-yl]-amide] showed an Emax [2] of 73 to 95%.
COc1cc(F)cc(N2CC[C@@]3(CCC[C@@H](NC(=O)c4ccnc(C)n4)C3)C2=O)c1 (relative stereo) [Example 141, cis-2-Methyl-pyrimidine-4-carboxylic acid [2-(3-fluoro-5-methoxy-phenyl)-1-oxo-2-aza-spiro[4.5]dec-7-yl]-amide] was tested, and the Emax [2] was 47 to 93%.
Work on O=C(N[C@H]1CCC[C@]2(CCN(c3cccc(O)c3)C2=O)C1)c1cccc(F)c1 (relative stereo) [Example 131, cis-3-Fluoro-N-[2-(3-hydroxy-phenyl)-1-oxo-2-aza-spiro[4.5]dec-7-yl]-benzamide] yielded an Emax [2] of 47 to 93%.
O=C(N[C@H]1CCC[C@]2(CCN(c3cc(F)cc(F)c3)C2=O)C1)c1ccncn1 (relative stereo) [Example 79, cis-Pyrimidine-4-carboxylic acid [2-(3,5-difluoro-phenyl)-1-oxo-2-azaspiro[4.5]dec-7-yl]-amide] showed an Emax [2] of 73 to 95%.
Compound Cc1cccc(C(=O)N[C@@H]2C[C@@H](O)C[C@@]3(CCN(c4cccc(F)c4)C3=O)C2)n1 (relative stereo) [Example 126, trans-6-Methyl-pyridine-2-carboxylic acid [2-(3-fluoro-phenyl)-9-hydroxy-1-oxo-2-aza-spiro[4.5]dec-7-yl]-amide] has an Emax [2] of 47 to 93%.
Work on O=C(N[C@H]1CCC[C@]2(CCN(c3cccc(F)c3)C2=O)C1)c1nccs1 (relative stereo) [Example 137, cis-Thiazole-2-carboxylic acid [2-(3-fluoro-phenyl)-1-oxo-2-aza-spiro[4.5]dec-7-yl]-amide] yielded an Emax [2] of 47 to 93%.
With Cc1nccc(N2CC[C@@]3(C[C@@H](NC(=O)c4cccc(F)c4)CC(F)(F)C3)C2=O)n1 (racemic) [Example 128, cis-N-[9,9-Difluoro-2-(2-methyl-pyrimidin-4-yl)-1-oxo-2-aza-spiro[4.5]dec-7-yl]-3-fluoro-benzamide] the Emax [2] was 47 to 93%.
In the case of Cc1cccc(C(=O)N[C@@H]2CCC[C@@]3(CCN(c4ccc(F)cn4)C3=O)C2)n1 [Example 73, 6-Methyl-pyridine-2-carboxylic acid [(5R,7R)-2-(5-fluoro-pyridin-2-yl)-1-oxo-2-aza-spiro[4.5]dec-7-yl]-amide], the Emax [2] is reported as 73 to 95%.
